Patent publication US20120214775A1, “Pharmaceutical Salts of 3-O-(3',3'-Dimethylsuccinyl) Betulinic Acid” (priority 2004, published 2012)
≈ marks a conversion by molar mass, not a printed value. Entries after “also recorded” stand apart in the source; their conditions may differ. Structures can show the parent of a compound that is named as a salt. Where two headings read alike, the source gives them in different places.

Legend:
HIV-1 NL4-3 = assay: In vivo anti-HIV efficacy in the SCID-hu Thy/Liv mouse model of HIV infection; settings: for implant p24: untreated 440; for antiviral activity against NL4-3 (in words): twice-daily oral gavage at 100 and 150 mg/kg/day, SCID-hu Thy/Liv mice
[1] = tested on: HIV-1 replication in H9 lymphocyte cells; settings: cited from earlier work; for T.I.: acutely infected H9 lymphocytes; for therapeutic index (T.I.) / EC50: H9 lymphocyte cells
[2] = Intravenous administration of DSB in rats (reference for bioavailability); assay type: in vivo; settings: rat, plasma, dose 10.4 mg/kg, read-out: AUCINF after intravenous administration
Method: Blood samples were collected by cardiac puncture (n=2 rats/formulation/time point) at the following times: 0.25, 0.5, 1, 2, 4, 6, 12, and 24 h. Bioavailabilities of the oral formulations were calculated as the ratio of the oral dose-adjusted AUCINF assuming proportionality of the dose adjustments to the dose adjusted AUCINF reported after intravenous administration (AUCINF=63.3 μg h/mL) from a study of DSB in rats.

[3] = Water solubility (summary statement); assay type: physicochemical
physchem [4] = settings: thermodynamic from solid, Equilibrium solubility
[5] = 25° C.
physchem [6] = settings: 25 °C
[7] = Equilibrium solubility in selected solvents; settings: for solubility thermodynamic at 7 days: organic solvent or mixture, equilibration 7 days
[8] = once-daily oral gavage at 100 mg/kg/day
[9] = highest dosage level (150 mg/kg/day), twice-daily oral gavage

With `Nc1ccn([C@@H]2CS[C@H](CO)O2)c(=O)n1` [Group 3TC, lamivudine, reference compound] the “HIV-1 RNA reduction versus untreated mice” value (HIV-1 NL4-3; [8]) was 96%, the “thymocyte viability (live thymocytes)” value (HIV-1 NL4-3; [8]) was 71% and the “p24 reduction versus untreated mice” value (HIV-1 NL4-3; once-daily oral gavage at 100 mg/kg/day (positive control)) was 97%. For the same compound, the “implant p24” value (HIV-1 NL4-3; [8]) was 35 pg p24 per 10^6 cells.

For `CC(C)C1CCC2(C(=O)O)CCC3(C)C(CCC4C5(C)CCC(OC(=O)CC(C)(C)C(=O)O)C(C)(C)C5CCC43C)C12` (stereo not shown) [dihydrobetulinic acid analog], the T.I. [1] is given as “more than 400,000”.

For `C=C(C)[C@H]1CC[C@]2(C(=O)O)CC[C@@]3(C)[C@H](CC[C@H]4[C@@]5(C)CC[C@H](OC(=O)CC(C)(C)C(=O)O)C(C)(C)[C@H]5CC[C@]43C)[C@H]12` [DSB, 3-O-(3′,3′-dimethylsuccinyl) betulinic acid], the AUC(0-inf) [2] is listed as 63300 ng·h/mL, the solubility [3] is listed as roughly 100 µg/mL (≈ 171 µM) and the T.I. [1] is listed as “more than 970,000”. The solubility thermodynamic at 3 days (physchem [4]; saline or isotonic) was 1500 µg/mL (≈ 2560 µM) and the solubility thermodynamic at 3 days (physchem [4]; water) was 35.1 µg/mL (≈ 60 µM).

In the case of `CC(=O)[C@@H]1CC[C@]2(C(=O)O)CC[C@]3(C)[C@H](CC[C@@H]4[C@@]5(C)CC[C@H](O)C(C)(C)[C@@H]5CC[C@]43C)[C@@H]12` [platanic acid], the “therapeutic index (T.I.)” value [1] is listed as 14 and the EC50 ([1]; read-out: EC50, inhibitory activity against HIV-1 replication) is listed as 6.5 µM.

With `C=C(C)[C@@H]1CC[C@]2(C(=O)O)CC[C@]3(C)[C@H](CC[C@@H]4[C@@]5(C)CC[C@H](OC(=O)CC(C)(C)C(=O)O)C(C)(C)[C@@H]5CC[C@]43C)[C@@H]12` [DSB-(NmG)2, di-(N-methyl-D-glucamine) salt of 3-O-(3′,3′-dimethylsuccinyl) betulinic acid] the “implant p24” value (HIV-1 NL4-3; 100 mg/kg/day, twice-daily oral gavage) was 69 pg p24 per 10^6 cells, the “HIV-1 RNA reduction versus untreated mice” value (HIV-1 NL4-3; [9]) was 97% and the “implant p24” value (HIV-1 NL4-3; [9]) was 14 pg p24 per 10^6 cells. The “MHC-I expression on CD4+CD8+ thymocytes” value (HIV-1 NL4-3; highest dosage level (150 mg/kg/day), untreated 530) was 250 mean fluorescence intensity, the “p24 reduction versus untreated mice” value (HIV-1 NL4-3; highest dosage level (150 mg/kg/day, started at 300), twice-daily oral gavage, 22 days, Thy/Liv implant) was 99% and the “antiviral activity against NL4-3 (in words)” value (HIV-1 NL4-3) was “potent, dose-dependent antiviral activity; also recorded: potent in vivo inhibitor of HIV-1 replication”. For the same compound, the “antiviral activity against NL4-3 (in words)” value (HIV-1 NL4-3; listed as DSG-(NmG)2) was “potent in vivo inhibitor of HIV-1 replication”, the visual solubility ([5]; basic and neutral conditions) was “visibly soluble” and the visual solubility ([5]; strongly acid solutions) was “visually insoluble”. For the same compound, the solubility (physchem [6]; pH 9.461, aqueous buffer) was 7540 µg/mL, the solubility (physchem [6]; pH 10.691, aqueous buffer) was 7460 µg/mL and the Equilibrium solubility ([7]; Deionized Water, equilibration 3 days) was greater than 18000 µg/mL. For the same compound, the solubility thermodynamic at 3 days ([7]; aqueous buffer, thermodynamic from solid, Equilibrium solubility, 1% DMSO in HERG Buffer, equilibration 3 days) was 87.1 µg/mL, the solubility thermodynamic at 3 days ([7]; aqueous buffer, thermodynamic from solid, Equilibrium solubility, HERG Buffer, equilibration 3 days) was 17.8 µg/mL and the solubility thermodynamic at 7 days ([7]; thermodynamic from solid, Equilibrium solubility, Ethanol, solid may have precipitated on transfer) was 25000 µg/mL. The solubility thermodynamic at 7 days ([7]; thermodynamic from solid, Equilibrium solubility, Methanol) was 37000 µg/mL, the solubility thermodynamic at 7 days ([7]; thermodynamic from solid, Equilibrium solubility, PEG 400, compound may have precipitated on removal from water bath) was 5120 µg/mL and the solubility thermodynamic at 7 days ([7]; thermodynamic from solid, Equilibrium solubility, Propylene glycol) was greater than 255000 µg/mL. The solubility thermodynamic at 3 days ([7]; saline or isotonic, thermodynamic from solid, Equilibrium solubility, PSS (physiological salt solution), equilibration 3 days) was 80.2 µg/mL, the solubility thermodynamic at 3 days ([7]; saline or isotonic, thermodynamic from solid, Equilibrium solubility, PSS + 0.1% DMSO, equilibration 3 days) was 108 µg/mL and the solubility thermodynamic at 3 days ([7]; saline or isotonic, thermodynamic from solid, Equilibrium solubility, PSS + 1% DMSO, equilibration 3 days) was 108 µg/mL. The solubility thermodynamic at 3 days ([7]; water, thermodynamic from solid, Equilibrium solubility, Deionized Water, equilibration 3 days) was greater than 18000 µg/mL and the solubility thermodynamic at 4 days ([7]; water, thermodynamic from solid, Equilibrium solubility, Deionized Water, equilibration 4 days) was greater than 7000 µg/mL.

For `CC(C)[C@@H]1CC[C@]2(C(=O)O)CC[C@]3(C)C(CCC4[C@@]5(C)CC[C@H](O)C(C)(C)C5CC[C@]43C)C12` (stereo partly shown) [dihydrobetulinic acid], the “therapeutic index (T.I.)” value [1] is given as 14 and the EC50 ([1]; unit inferred, read-out: EC50, anti-HIV activity) is given as 0.9 µM.
